Assay results published in US8658604B2, “Template-fixed beta-hairpin peptidomimetics with protease inhibitory activity” (Polyphor Ltd, priority 2005, dated 2014).
Read-outs that look alike come from different tables or passages of the source. Where a SMILES comes first, the peptide text is derived from it. Bridges are numbered along the chain shown (N, C = ends). [ ]: non-standard residue; d: D form. Nle = CCCC[C@H](N)C(=O)O; Abu = CC[C@H](N)C(=O)O

Assays:
Chymase, from human skin = target: T1, Chymase, from human skin (Homo sapiens, UniProt P23946); experiment: Enzymatic assay, chymase
T1 sequence (P23946 22-247): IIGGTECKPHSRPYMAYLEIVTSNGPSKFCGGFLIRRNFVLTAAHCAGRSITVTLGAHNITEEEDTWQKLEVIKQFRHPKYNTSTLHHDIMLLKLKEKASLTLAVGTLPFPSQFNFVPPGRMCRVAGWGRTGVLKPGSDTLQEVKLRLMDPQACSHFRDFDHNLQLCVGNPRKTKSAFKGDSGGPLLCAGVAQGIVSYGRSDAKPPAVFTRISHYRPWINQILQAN

[1] = target: T2, Elastase from human neutrophils (Homo sapiens, UniProt P08246); experiment: Enzymatic assay, elastase
T2 sequence (P08246 30-267): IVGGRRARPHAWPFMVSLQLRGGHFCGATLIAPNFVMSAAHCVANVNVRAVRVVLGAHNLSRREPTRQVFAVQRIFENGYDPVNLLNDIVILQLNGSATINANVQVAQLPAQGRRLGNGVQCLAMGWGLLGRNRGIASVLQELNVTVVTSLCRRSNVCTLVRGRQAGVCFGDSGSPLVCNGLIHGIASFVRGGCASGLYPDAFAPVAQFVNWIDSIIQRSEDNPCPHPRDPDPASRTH

[2] = target: Trypsin, from human pancreas (Homo sapiens, UniProt P07477); experiment: Enzymatic assay, trypsin; conditions: at 100 μM
HELA cells (Acc57) = experiment: Cytotoxicity assay (MTT reduction), HELA cells; assay type: cell-based
Method: The cytotoxicity of the peptides to HELA cells (Acc57) and COS-7 cells (CRL-1651) was determined using the MTT reduction assay [see ref. 2 and 3, below]. Briefly the method was as follows: HELA cells and COS-7 cells were seeded at 7.0×10^3 and, respectively, 4.5×10^3 cells per well and grown in 96-well microtiter plates for 24 hours at 37° C. at 5% CO2. At this point, time zero (Tz) was determined by MTT reduction (see below). The supernatant of the remaining wells was discarded, and fresh medium and the peptides in serial dilutions of 12.5, 25 and 50 μM were pipetted into the wells. Each peptide concentration was assayed in triplicate. Incubation of the cells was continued for 48 hours at 37° C. at 5% CO2. Wells were then washed once with phosphate buffered saline (PBS) and subsequently 100 μl MTT reagent (0.5 mg/ml in medium RPMI1640 and, respectively, DMEM) were added to the wells. This was incubated at 37° C. for 2 hours and subsequently the medium was aspirated and 100 μl isopropanol were added to each well. The absorbance at 595 nm of the solubilized product was measured (OD595peptide). For each concentration averages were calculated from triplicates. The percentage of growth was calculated as follows: (OD595peptide-OD595Tz-OD595Empty well)/(OD595Tz-OD595Empty well)×100% and was plotted for each peptide concentration.
The LC 50 values (Lethal Concentration, defined as the concentration that kills 50% of the cells) were determined for each peptide by using the trend line function of EXCEL (Microsoft Office 2000) for the concentrations (50, 25, 12.5 and 0 μM), the corresponding growth percentages and the value −50, (=TREND(C50:C0,%50:%0,−50)).
The GI 50 (Growth Inhibition) concentrations were calculated for each peptide by using a trend line function for the concentrations (50, 25, 12.5 and 0 μg/ml), the corresponding percentages and the value 50, (=TREND (C50:C0,%50:%0,50).

[3] = target: Chymotrypsin, from human pancreas (Homo sapiens, UniProt P17538); experiment: Enzymatic assay, chymotrypsin
[4] = system: Tryptase, from human lung; experiment: Enzymatic assay, tryptase; conditions: at 100 μM
[5] = target: Urokinase from human urine (Homo sapiens, UniProt P00749); experiment: Enzymatic assay, urokinase
[6] = target: Coagulation Factor Xa, from uman plasma (Homo sapiens, UniProt P00742); experiment: Enzymatic assay, coagulation factor Xa
[7] = target: Thrombin, from Human Plasma (Homo sapiens, UniProt P00734); experiment: Enzymatic assay, thrombin
[8] = target: T3, CathepsinG, from human neutrophils (Homo sapiens, UniProt P08311); experiment: Enzymatic assay, cathepsin G; conditions: for IC50: Cathepsin G IC50
T3 sequence (P08311 21-244): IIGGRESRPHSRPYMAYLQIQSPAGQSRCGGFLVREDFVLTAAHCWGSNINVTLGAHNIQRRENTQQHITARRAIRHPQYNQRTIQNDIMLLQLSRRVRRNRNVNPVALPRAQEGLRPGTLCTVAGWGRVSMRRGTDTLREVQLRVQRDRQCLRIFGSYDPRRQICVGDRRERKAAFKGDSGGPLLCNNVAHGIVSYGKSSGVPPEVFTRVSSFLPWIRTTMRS

Chain of Coagulation Factor Xa, from uman plasma (P00742 235-488 limits assumed): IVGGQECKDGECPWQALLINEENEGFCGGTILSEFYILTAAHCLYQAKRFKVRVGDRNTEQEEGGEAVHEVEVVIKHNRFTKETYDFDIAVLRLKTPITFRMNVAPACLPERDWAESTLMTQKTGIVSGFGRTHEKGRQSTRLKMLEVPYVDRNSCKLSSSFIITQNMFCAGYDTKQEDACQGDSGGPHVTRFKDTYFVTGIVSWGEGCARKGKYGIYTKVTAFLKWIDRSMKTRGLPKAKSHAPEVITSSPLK
Chain of Coagulation Factor Xa, from uman plasma (P00742 41-179 limits assumed): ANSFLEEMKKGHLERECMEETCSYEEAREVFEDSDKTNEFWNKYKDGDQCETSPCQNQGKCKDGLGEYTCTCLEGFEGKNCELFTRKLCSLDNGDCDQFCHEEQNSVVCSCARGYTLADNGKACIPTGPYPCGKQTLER
Chain of Chymotrypsin, from human pancreas (P17538 19-263): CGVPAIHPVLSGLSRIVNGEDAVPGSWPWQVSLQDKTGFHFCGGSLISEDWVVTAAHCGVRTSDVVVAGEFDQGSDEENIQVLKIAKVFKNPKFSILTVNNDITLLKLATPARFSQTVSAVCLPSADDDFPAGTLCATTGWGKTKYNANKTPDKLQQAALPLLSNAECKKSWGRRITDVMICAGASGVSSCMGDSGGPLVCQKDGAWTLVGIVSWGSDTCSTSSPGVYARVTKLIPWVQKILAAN

IC50 ([1]; read-out: Elastase IC50) [µM]	IC50 ([3]; read-out: Chymotrypsin IC50) [µM]	Compound	Chymase at 100 μM % (Chymase, from human skin) [%]	IC50 ([1]; Elastase IC50) [µM]	Trypsin at 100 μM % [2] [%]	Cytotoxicity LC50/GI50 Hela cells (HELA cells (Acc57); Hela cells) [µM]	IC50 [3] [µM]	Tryptase at 100 μM % [4] [%]	Urokinase at 100 μM % [5] [%]	FXa at 100 μM % [6] [%]	Thrombin at 100 μM % [7] [%]	IC50 [8] [µM]	Cathepsin G at 100 μM % ([8]; at 100 μM (stated in cell instead of IC50)) [at 100%]	Chymotrypsin at 100 μM % ([3]; at 100 μM) [%]	Tryptase At 100 μM % [4] [%]	Cathepsin G at 100 μM % ([8]; at 100 μM) [at 100%]	Cytotoxicity LC50/GI50 Hela cells (HELA cells (Acc57)) [µM]
–	–	CCCC[C@@H]1NC(=O)[C@@H]2CCCN2C(=O)[C@H]2CCCN2C(=O)[C@H](Cc2ccc(O)cc2)NC(=O)[C@@H]2CSSC[C@H](NC1=O)C(=O)N[C@@H]([C@@H](C)O)C(=O)N[C@@H](C)C(=O)N[C@@H](CO)C(=O)N[C@@H]([C@@H](C)CC)C(=O)N1CCC[C@H]1C(=O)N1CC(NC(=O)c3ccccc3)C[C@H]1C(=O)N[C@@H](CCC(N)=O)C(=O)N2 (single isomer, unassigned) [Ex. 88]	0	0.018	6.4	73	4.31	0.6	96	3	0.2	> 100	–	–	–	–	–
–	–	CCCC[C@@H]1NC(=O)[C@@H]2CCCN2C(=O)[C@H]2CCCN2C(=O)[C@H](Cc2ccc(O)cc2)NC(=O)[C@@H]2CSSC[C@H](NC1=O)C(=O)N[C@@H]([C@@H](C)O)C(=O)N[C@@H](C)C(=O)N[C@@H](CO)C(=O)N[C@@H](C1CCCCC1)C(=O)N1CCC[C@H]1C(=O)N1CCC[C@H]1C(=O)N[C@@H](CCC(N)=O)C(=O)N2 [Ex. 84] (HELM PEPTIDE1{[Nle].C.T.A.S.[O=C([C@@H](N[*:1])C1CCCCC1)[*:2]].P.P.Q.C.Y.[dP].P}$PEPTIDE1,PEPTIDE1,2:R3-10:R3|PEPTIDE1,PEPTIDE1,1:R1-13:R2$$$V2.0)	0	0.018	10.8	9	17.1	4.2	10.4	13.3	20.6	20.2	–	–	–	–	–
–	–	CCCC[C@@H]1NC(=O)[C@@H]2CCCN2C(=O)[C@H]2CCCN2C(=O)[C@H](Cc2ccccc2)NC(=O)[C@@H]2CSSC[C@H](NC1=O)C(=O)N[C@@H]([C@@H](C)O)C(=O)N[C@@H](C)C(=O)N[C@@H](CO)C(=O)N[C@@H]([C@@H](C)CC)C(=O)N1CCC[C@H]1C(=O)N1CCC[C@H]1C(=O)N[C@@H](CCC(N)=O)C(=O)N2 [Ex. 90] (HELM PEPTIDE1{[Nle].C.T.A.S.I.P.P.Q.C.F.[dP].P}$PEPTIDE1,PEPTIDE1,2:R3-10:R3|PEPTIDE1,PEPTIDE1,1:R1-13:R2$$$V2.0)	0	0.021	5.2	96	33.1	5	3.5	5.5	0	67	–	–	–	–	–
–	–	CCCC[C@@H]1NC(=O)[C@@H]2CCCN2C(=O)[C@H]2CCCN2C(=O)[C@H](CCC(N)=O)NC(=O)[C@@H]2CSSC[C@H](NC1=O)C(=O)N[C@@H]([C@@H](C)O)C(=O)N[C@@H](C)C(=O)N[C@@H](CO)C(=O)N[C@@H]([C@@H](C)CC)C(=O)N1CCC[C@H]1C(=O)N1CCC[C@H]1C(=O)N[C@@H](CCC(N)=O)C(=O)N2 [Ex. 91] (HELM PEPTIDE1{[Nle].C.T.A.S.I.P.P.Q.C.Q.[dP].P}$PEPTIDE1,PEPTIDE1,2:R3-10:R3|PEPTIDE1,PEPTIDE1,1:R1-13:R2$$$V2.0)	4.7	0.028	0	79	48.1	–	–	19.4	13.5	–	45	–	–	–	–
–	–	CCCC[C@@H]1NC(=O)[C@@H]2CCCN2C(=O)[C@H]2CCCN2C(=O)[C@H](Cc2ccc3ccccc3c2)NC(=O)[C@@H]2CSSC[C@H](NC1=O)C(=O)N[C@@H]([C@@H](C)O)C(=O)N[C@@H](C)C(=O)N[C@@H](CO)C(=O)N[C@@H]([C@@H](C)CC)C(=O)N1CCC[C@H]1C(=O)N1CCC[C@H]1C(=O)N[C@@H](CCC(N)=O)C(=O)N2 [Ex. 95] (HELM PEPTIDE1{[Nle].C.T.A.S.I.P.P.Q.C.[O=C([C@H](Cc1ccc2ccccc2c1)N[*:1])[*:2]].[dP].P}$PEPTIDE1,PEPTIDE1,2:R3-10:R3|PEPTIDE1,PEPTIDE1,1:R1-13:R2$$$V2.0)	0	0.024	8.9	89	33.7	0	10.3	11.3	0	38.7	–	–	–	–	–
–	–	CCCC[C@@H]1NC(=O)[C@H](C(C)C)NC(=O)[C@H]2CCCN2C(=O)[C@H](Cc2ccc(O)cc2)NC(=O)[C@@H]2CSSC[C@H](NC1=O)C(=O)N[C@@H]([C@@H](C)O)C(=O)N[C@@H](C)C(=O)N[C@@H](CO)C(=O)N[C@@H]([C@@H](C)CC)C(=O)N1CCC[C@H]1C(=O)N1CCC[C@H]1C(=O)N[C@@H](CCC(N)=O)C(=O)N2 [Ex. 125] (HELM PEPTIDE1{[Nle].C.T.A.S.I.P.P.Q.C.Y.[dP].V}$PEPTIDE1,PEPTIDE1,2:R3-10:R3|PEPTIDE1,PEPTIDE1,1:R1-13:R2$$$V2.0)	4.8	0.015	28.3	37	> 20	–	–	0	0	18.3	–	–	–	–	–
–	–	CCCC[C@@H]1NC(=O)[C@@H]2CCCN2C(=O)[C@H]2CCCN2C(=O)[C@H](Cc2ccc(O)cc2)NC(=O)[C@@H]2CSSC[C@H](NC1=O)C(=O)N[C@@H]([C@@H](C)O)C(=O)N[C@@H](C)C(=O)N[C@@H](CO)C(=O)N[C@@H](CC1CCCCC1)C(=O)N1CCC[C@H]1C(=O)N1CCC[C@H]1C(=O)N[C@@H](CCC(N)=O)C(=O)N2 [Ex. 141] (HELM PEPTIDE1{[Nle].C.T.A.S.[Cha].P.P.Q.C.Y.[dP].P}$PEPTIDE1,PEPTIDE1,2:R3-10:R3|PEPTIDE1,PEPTIDE1,1:R1-13:R2$$$V2.0)	0	–	0	56	–	–	–	15.3	0	–	–	72.9	44.5	63.4	–
0.037	107	Ex. 87: β-hairpin peptidomimetic of Table 1, template DPro-Pro (cyclo([Nle]C[Abu]ASIPPQCY); disulfide 2-10; also: DPro-Pro template, linkage not given here)	–	–	–	–	–	–	–	–	–	–	–	–	–	–	65
